Laboratory results as given in patent US20190223450A1, “MICROALGAE EXTRACT FOR AGRICULTURAL USE” (priority 2015, published 2019).

Columns and labels:
[1] = system: zoospores; assay: Inhibition of zoospores (mobility); set-up: species or system Plasmopara viticola
[2] = system: pathogenesis-related (PR) proteins; assay: Induced resistance in vine: resistance-linked metabolites and pathogenesis-related (PR) proteins; format: in vivo, vine plants; conditions: for production of metabolites linked to resistance phenomena / response: vine plants
Experimental: (§1) The efficacy of the treatments using the products listed above was assessed on the basis of the induced resistance using foliar discs and potted vine plants. The rate of induced resistance was determined on the basis of the increase in the content of pathogenesis-related (PR) proteins including: peroxidase, polyphenoloxidase, Beta 1,3-glucanase, phenylalanine ammonia-lyase, stilbene synthase, PR-1 protein and caffeoyl coenzyme A-3-O-methyltransferase.

[3] = system: Plasmopara viticola; assay: Protection of vine foliar discs and potted vine plants against Plasmopara viticola (peronospora); format: in vivo; conditions: vine plants affected by peronospora
Experimental: The field tests were performed on vine plants affected by peronospora. The potential of certain biocontrol and plant extract products for protection against Plasmopara viticola (peronospora) was also assessed, since some chemical and natural substances can reduce the plants' susceptibility. In particular, comparisons were performed on the use of commercial products or experimental products: • EXPERIMENTAL PRODUCT 1 (EP1) yeast extract • EXPERIMENTAL PRODUCT 2 (EP2) plant extract • EXPERIMENTAL PRODUCT 3 (EP3) Aureobasidium pullulans • CANG extract of Solidago canadensis • P E N extract of mycelium of Penicillium crysogenum • LIN linoleic acid • BABA—chemical elicitors of 3-dl-β-aminobutyric acid • BTH—chemical elicitors of benzothiadiazole • CP—comparator product: extract of microalgae • MBGPT1—alginate extract of Phaeodactylum tricornutum obtained according to the method described above • chrysolaminarin from microalga
as §1

| SMILES | inhibition of the zoospores (mobility) [1] | formation of necrotic spots and PR proteins ([2]; immediately after inoculation) | protection [3] | production of metabolites linked to resistance phenomena / response [2] |
| --- | --- | --- | --- | --- |
| CC(N)CC(=O)O (racemic) [BABA, 3-dl-β-aminobutyric acid] | unable to inhibit the zoospores | caused the formation of necrotic spots and PR proteins immediately after inoculation |  |  |
| CCCCC/C=C\C/C=C\CCCCCCCC(=O)O [LIN, linoleic acid] |  |  | insignificant protection | induced the production of a wide range of metabolites linked to resistance phenomena |
| c1ccc2snnc2c1 [BTH, benzothiadiazole] |  |  |  | induced the production of a wide range of metabolites linked to resistance phenomena |
